Data on 28 molecules can be found in patent US20240246945A1, “NOVEL COMPOUND FOR CROP PROTECTANT” (LG CHEM, LTD., priority 2010, published 2024).

The subject of the first assay is Myzus persicae (Sulzer). Description: Insecticidal Activity Test 2 against Myzus persicae (Sulzer), foliar spray on potted peppers, approximately 25 ppm. The settings on record: in Capsicum, 120 h, approximately 25 ppm drug solution in water, counted on day 5 after spraying, read-out: mortality rate rating. It is filed as in vivo. From the text:
Insecticidal Activity Test 2 Against Myzus persicae (Sulzer)
Peppers were planted in plastic pots with a diameter of 8 cm and a height of 8 cm, Myzus persicae (Sulzer) was reproduced therein, and then the number of Myzus persicae (Sulzer) in each pot was investigated. Some of the compounds prepared in the examples were selected, the compound was dispersed in water to be diluted to approximately 25 ppm, thereby preparing a drug solution.
The drug solution was sprayed onto the foliage of the peppers planted in the pots and air-dried, and the pots were stored in a green house.
(§1) On day 5 after the drug spraying, the number of Myzus persicae (Sulzer) parasitic on each pepper was counted, a mortality rate was calculated from the following formula, and the rating of each compound was investigated.
(§2) [formula] • A rating: 90% to 100% mortality • B rating: 80% or more and less than 90% mortality • C rating: less than 80% mortality
What is called mortality is the percentage killed. Consider `CCN(C(=O)c1cnc(-c2noc(N(C(C)=O)C(C)C)n2)n1C)c1cccnc1` [Ia-1-1-38, N-ethyl-2-(5-(N-isopropylacetamido)-1,2,4-oxadiazol-3-yl)-1-methyl-N-(pyridin-3-yl)-1H-imidazole-5-carboxamide], for which the mortality at 25 µg/mL lay within 90 to 100%.

Turning to `CCN(C(=O)c1cnc(C2=NOC(C)(C)N2C(=O)C2CC2)n1C)c1cccnc1` [Ia-1-4-3, 2-(4-(cyclopropanecarbonyl)-5,5-dimethyl-4,5-dihydro-1,2,4-oxadiazol-3-yl)-N-ethyl-1-methyl-N-(pyridin-3-yl)-1H-imidazole-5-carboxamide], the mortality at 25 µg/mL lay in the range of 90 to 100%.

`CCN(C(=O)c1cnc(C2=NOC(CC)(CC)N2)n1C)c1cccnc1` [Ia-1-4-4, 2-(5,5-diethyl-4,5-dihydro-1,2,4-oxadiazol-3-yl)-N-ethyl-1-methyl-N-(pyridin-3-yl)-1H-imidazole-5-carboxamide]: the mortality at 25 µg/mL fell in the range of 90 to 100%.

Take `CCN(C(=O)c1cnc(C2=NOC3(CCOCC3)N2)n1C)c1cccnc1` [Ia-1-4-10, N-ethyl-1-methyl-N-(pyridin-3-yl)-2-(1,8-dioxa-2,4-diazaspiro[4.5]dec-2-en-3-yl)-1H-imidazole-5-carboxamide]: the mortality at 25 µg/mL is 90 to 100%.

Turning to `CCN(C(=O)c1cnc(C2=NOC3(CCOCC3)N2C(=O)C2CC2)n1C)c1cccnc1` [Ia-1-4-12, 2-(4-(cyclopropanecarbonyl)-1,8-dioxa-2,4-diazaspiro[4.5]dec-2-en-3-yl)-N-ethyl-1-methyl-N-(pyridin-3-yl)-1H-imidazole-5-carboxamide], the mortality at 25 µg/mL lay within 90 to 100%.

With `CCN(C(=O)c1cnc(C2=NOC3(CCC(C(F)(F)F)CC3)N2C)n1C)c1cccnc1` (centres unmarked) [Ia-1-4-25, N-ethyl-1-methyl-2-(4-methyl-8-(trifluoromethyl)-1-oxa-2,4-diazaspiro[4.5]dec-2-en-3-yl)-N-(pyridin-3-yl)-1H-imidazole-5-carboxamide], the mortality at 25 µg/mL was 90 to 100%.

Turning to `CCN(C(=O)c1cnc(C2=NOC(c3ccccc3F)N2)n1C)c1cccnc1` (centres unmarked) [Ia-1-4-33, N-ethyl-2-(5-(2-fluorophenyl)-4,5-dihydro-1,2,4-oxadiazol-3-yl)-1-methyl-N-(pyridin-3-yl)-1H-imidazole-5-carboxamide], the mortality at 25 µg/mL is 90 to 100%.

Take `CCN(C(=O)c1cnc(C2=NOC(c3cccnc3F)N2)n1C)c1cccnc1` (centres unmarked) [Ia-1-4-34, N-ethyl-2-(5-(2-fluoropyridin-3-yl)-4,5-dihydro-1,2,4-oxadiazol-3-yl)-1-methyl-N-(pyridin-3-yl)-1H-imidazole-5-carboxamide]: the mortality at 25 µg/mL was in the range of 90 to 100%.

Regarding `CCN(C(=O)c1cnc(C2=NC(C)(C)ON2C)n1C)c1cccnc1` [Ia-1-5-1, N-ethyl-1-methyl-N-(pyridin-3-yl)-2-(2,5,5-trimethyl-2,5-dihydro-1,2,4-oxadiazol-3-yl)-1H-imidazole-5-carboxamide], the mortality at 25 µg/mL fell in the range of 90 to 100%.

On to `CCN(C(=O)c1cnc(C2=NC3(CCOCC3)ON2C)n1C)c1cccnc1` [Ia-1-5-2, N-ethyl-1-methyl-2-(2-methyl-1,8-dioxa-2,4-diazaspiro[4.5]dec-3-en-3-yl)-N-(pyridin-3-yl)-1H-imidazole-5-carboxamide], for which the mortality at 25 µg/mL lay within 90 to 100%.

In the case of `CCN(C(=O)c1cnc(C2=NC3(CCN(C(=O)OC(C)(C)C)CC3)ON2C)n1C)c1cccnc1` [Ia-1-5-3, tert-butyl 3-(5-(ethyl(pyridin-3-yl)carbamoyl)-1-methyl-1H-imidazole-2-yl)-2-methyl-1-oxa-2,4,8-triazaspiro[4.5]dec-3-en-8-carboxylate], the mortality at 25 µg/mL lay within 90 to 100%.

Take `CCN(C(=O)c1cnc(C2=NC(c3cccnc3F)ON2C)n1C)c1cccnc1` (centres unmarked) [Ia-1-5-9, N-ethyl-2-(5-(2-fluoropyridin-3-yl)-2-methyl-2,5-dihydro-1,2,4-oxadiazol-3-yl)-1-methyl-N-(pyridin-3-yl)-1H-imidazole-5-carboxamide]: the mortality at 25 µg/mL lay within 90 to 100%.

Another assay concerns Myzus persicae (Sulzer). As to the kind of experiment: Insecticidal Activity Test 1 against Myzus persicae (Sulzer), foliar spray on potted peppers, approximately 5 ppm. It is filed as in vivo. Particulars: in Capsicum, 120 h, approximately 5 ppm drug solution in water, counted on day 5 after spraying, read-out: mortality rate rating.
Excerpt: Insecticidal Activity Test 1 Against Myzus persicae (Sulzer)
Peppers were planted in plastic pots with a diameter of 8 cm and a height of 8 cm, Myzus persicae (Sulzer) was reproduced therein, and then the number of Myzus persicae (Sulzer) in each pot was investigated. Some of the compounds prepared in the examples were selected, the compound was dispersed in water to be diluted to approximately 5 ppm, thereby preparing a drug solution.
The drug solution was sprayed onto the foliage of the peppers planted in the pots using a hand sprayer and air-dried, and the pots were stored in a green house.
as §1, §2
For `CCN(C(=O)c1cnc(-c2noc(C)n2)n1C)c1cccnc1` [Ia-1-1-1, N-ethyl-1-methyl-2-(5-methyl-1,2,4-oxadiazol-3-yl)-N-(pyridin-3-yl)-1H-imidazole-5-carboxamide], the mortality at 5 µg/mL was in the range of 90 to 100%.

Turning to `CCc1nc(-c2ncc(C(=O)N(CC)c3cccnc3)n2C)no1` [Ia-1-1-8, N-ethyl-2-(5-ethyl-1,2,4-oxadiazol-3-yl)-1-methyl-N-(pyridin-3-yl)-1H-imidazole-5-carboxamide], the mortality at 5 µg/mL lay within 90 to 100%.

In the case of `CCN(C(=O)c1cnc(-c2noc(C3CC3)n2)n1C)c1cccnc1` [Ia-1-1-12, 2-(5-cyclopropyl-1,2,4-oxadiazol-3-yl)-N-ethyl-1-methyl-N-(pyridin-3-yl)-1H-imidazole-5-carboxamide], the mortality at 5 µg/mL lay within 90 to 100%.

Consider `CCN(C(=O)c1cnc(-c2noc(C3CCOCC3)n2)n1C)c1cccnc1` [Ia-1-1-25, N-ethyl-1-methyl-N-(pyridin-3-yl)-2-(5-(tetrahydro-2H-pyran-4-yl)-1,2,4-oxadiazol-3-yl)-1H-imidazole-5-carboxamide], for which the mortality at 5 µg/mL is 90 to 100%.

For the molecule `CCN(C(=O)c1cnc(-c2noc(N3CCCCC3)n2)n1C)c1cccnc1` [Ia-1-1-26, N-ethyl-1-methyl-2-(5-(piperidin-1-yl)-1,2,4-oxadiazol-3-yl)-N-(pyridin-3-yl)-1H-imidazole-5-carboxamide], the mortality at 5 µg/mL lay within 90 to 100%.

For the molecule `CCN(C(=O)c1cnc(-c2noc(N3CCCC3)n2)n1C)c1cccnc1` [Ia-1-1-27, N-ethyl-1-methyl-N-(pyridin-3-yl)-2-(5-(pyrrolidin-1-yl)-1,2,4-oxadiazol-3-yl)-1H-imidazole-5-carboxamide], the mortality at 5 µg/mL fell in the range of 90 to 100%.

With `CCN(C(=O)c1cnc(-c2noc(N(C)C)n2)n1C)c1cccnc1` [Ia-1-1-36, 2-(5-(dimethylamino)-1,2,4-oxadiazol-3-yl)-N-ethyl-1-methyl-N-(pyridin-3-yl)-1H-imidazole-5-carboxamide], the mortality at 5 µg/mL is 90 to 100%.

`CCSc1ccccc1-c1nc(-c2ncc(C(=O)N(CC)c3cccnc3)n2C)no1` [Ia-1-1-43, N-ethyl-2-(5-(2-(ethylthio)phenyl)-1,2,4-oxadiazol-3-yl)-1-methyl-N-(pyridin-3-yl)-1H-imidazole-5-carboxamide]: the mortality at 5 µg/mL is 90 to 100%.

In the case of `CCN(C(=O)c1cnc(-c2nnc(C3CC3)o2)n1C)c1cccnc1` [Ia-1-3-2, 2-(5-cyclopropyl-1,3,4-oxadiazol-2-yl)-N-ethyl-1-methyl-N-(pyridin-3-yl)-1H-imidazole-5-carboxamide], the mortality at 5 µg/mL lay in the range of 90 to 100%.

As to `CCN(C(=O)c1cnc(-c2nnc(C)o2)n1C)c1cccnc1` [Ia-1-3-3, N-ethyl-1-methyl-2-(5-methyl-1,3,4-oxadiazol-2-yl)-N-(pyridin-3-yl)-1H-imidazole-5-carboxamide], the mortality at 5 µg/mL was in the range of 90 to 100%.

As for `CCN(C(=O)c1cnc(C2=NOC(C)(C)N2C)n1C)c1cccnc1` [Ia-1-4-2, N-ethyl-1-methyl-N-(pyridin-3-yl)-2-(4,5,5-trimethyl-4,5-dihydro-1,2,4-oxadiazol-3-yl)-1H-imidazole-5-carboxamide], the mortality at 5 µg/mL is 90 to 100%.

Turning to `CCN(C(=O)c1cnc(C2=NOC3(CCSCC3)N2C)n1C)c1cccnc1` [Ia-1-4-22, N-ethyl-1-methyl-2-(4-methyl-1-oxa-8-thia-2,4-diazaspiro[4.5]dec-2-en-3-yl)-N-(pyridin-3-yl)-1H-imidazole-5-carboxamide], the mortality at 5 µg/mL was 90 to 100%.

On to `CCN(C(=O)c1cnc(C2=NOC(C3CC3)N2)n1C)c1cccnc1` (centres unmarked) [Ia-1-4-41, 2-(5-cyclopropyl-4,5-dihydro-1,2,4-oxadiazol-3-yl)-N-ethyl-1-methyl-N-(pyridin-3-yl)-1H-imidazole-5-carboxamide], for which the mortality at 5 µg/mL was in the range of 90 to 100%.

Consider `CCN(C(=O)c1cnc(C2=NOC(C)N2)n1C)c1cccnc1` (centres unmarked) [Ia-1-4-43, N-ethyl-1-methyl-2-(5-methyl-4,5-dihydro-1,2,4-oxadiazol-3-yl)-N-(pyridin-3-yl)-1H-imidazole-5-carboxamide], for which the mortality at 5 µg/mL was 90 to 100%.

As to `CCC1NC(c2ncc(C(=O)N(CC)c3cccnc3)n2C)=NO1` (centres unmarked) [Ia-1-4-44, N-ethyl-2-(5-ethyl-4,5-dihydro-1,2,4-oxadiazol-3-yl)-1-methyl-N-(pyridin-3-yl)-1H-imidazole-5-carboxamide], the mortality at 5 µg/mL was 90 to 100%.

With `CCN(C(=O)c1cnc(C2=NC3(CCOCC3)ON2C)n1C)c1cccnc1` [Ia-1-5-2, N-ethyl-1-methyl-2-(2-methyl-1,8-dioxa-2,4-diazaspiro[4.5]dec-3-en-3-yl)-N-(pyridin-3-yl)-1H-imidazole-5-carboxamide], the mortality at 5 µg/mL was in the range of 90 to 100%.

In the case of `CCN(C(=O)c1cnc(C2=NC3(CCC(C(F)(F)F)CC3)ON2C)n1C)c1cccnc1` (centres unmarked) [Ia-1-5-6, N-ethyl-1-methyl-2-(2-methyl-8-(trifluoromethyl)-1-oxa-2,4-diazaspiro[4.5]dec-3-en-3-yl)-N-(pyridin-3-yl)-1H-imidazole-5-carboxamide], the mortality at 5 µg/mL lay within 90 to 100%.
